26 compounds from patent US12065443B2, “Compounds and pharmaceutical compositions thereof for the treatment of diseases” (priority 2017, dated 2024) can be followed below.

Structures are written as SMILES.

Assay in all cases: biochemical
One test addresses T1, SIK1 (Homo sapiens, UniProt P57059).
T1 construct: purchased Carna Biosciences 02-131
Conditions: 33P radioactive SIK kinase assay, AMARA peptide, 10 μM ATP; read-out: SIK1 IC50. Summed up: (§1)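 AMARA peptide phosphorylation by SIK1–3 is quantified through ^33P uptake from a labeled/unlabeled ATP blend. Staurosporine at 10 μM final defines full inhibition, 1% DMSO the uninhibited signal. Quench uses phosphoric acid; counting follows filter capture.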

Another test addresses T2, SIK2 (Homo sapiens, UniProt Q9H0K1).
T2 construct: purchased ThermoFisher Scientific PV4792
The note with it: 33P radioactive SIK kinase assay, AMARA peptide, 10 μM ATP. In short, it runs like this:
as §1

For the next test, the target named is T3, SIK3 (Homo sapiens, UniProt Q9Y2K2).
T3 construct: purchased SignalChem S12-11G-100
In short, it runs like this: as §1

T2 sequence (Q9H0K1 whole entry): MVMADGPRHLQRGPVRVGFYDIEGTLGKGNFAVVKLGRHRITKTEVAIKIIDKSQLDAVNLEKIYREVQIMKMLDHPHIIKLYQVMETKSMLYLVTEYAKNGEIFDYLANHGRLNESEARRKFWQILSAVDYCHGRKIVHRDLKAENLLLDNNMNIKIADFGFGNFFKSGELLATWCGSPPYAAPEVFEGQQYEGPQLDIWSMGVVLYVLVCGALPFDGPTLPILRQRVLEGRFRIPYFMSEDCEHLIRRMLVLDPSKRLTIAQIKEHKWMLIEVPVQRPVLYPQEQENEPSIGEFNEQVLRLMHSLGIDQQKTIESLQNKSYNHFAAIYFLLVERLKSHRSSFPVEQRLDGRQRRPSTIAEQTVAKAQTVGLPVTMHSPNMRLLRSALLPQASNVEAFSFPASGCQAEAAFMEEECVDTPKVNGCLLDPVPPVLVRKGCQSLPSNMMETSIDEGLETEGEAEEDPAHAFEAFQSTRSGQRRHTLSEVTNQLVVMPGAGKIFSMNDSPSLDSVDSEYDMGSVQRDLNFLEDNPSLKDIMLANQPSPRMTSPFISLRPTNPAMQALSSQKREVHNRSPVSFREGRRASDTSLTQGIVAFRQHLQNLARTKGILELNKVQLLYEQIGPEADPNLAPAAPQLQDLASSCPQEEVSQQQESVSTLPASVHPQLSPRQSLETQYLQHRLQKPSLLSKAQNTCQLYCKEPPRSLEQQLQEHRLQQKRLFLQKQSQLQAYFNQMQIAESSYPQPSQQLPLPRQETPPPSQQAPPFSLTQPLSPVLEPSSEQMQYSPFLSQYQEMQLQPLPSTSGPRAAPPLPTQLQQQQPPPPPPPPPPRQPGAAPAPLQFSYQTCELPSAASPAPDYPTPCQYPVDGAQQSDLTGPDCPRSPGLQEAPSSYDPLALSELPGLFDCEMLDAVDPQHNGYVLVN
T1 sequence (P57059 whole entry): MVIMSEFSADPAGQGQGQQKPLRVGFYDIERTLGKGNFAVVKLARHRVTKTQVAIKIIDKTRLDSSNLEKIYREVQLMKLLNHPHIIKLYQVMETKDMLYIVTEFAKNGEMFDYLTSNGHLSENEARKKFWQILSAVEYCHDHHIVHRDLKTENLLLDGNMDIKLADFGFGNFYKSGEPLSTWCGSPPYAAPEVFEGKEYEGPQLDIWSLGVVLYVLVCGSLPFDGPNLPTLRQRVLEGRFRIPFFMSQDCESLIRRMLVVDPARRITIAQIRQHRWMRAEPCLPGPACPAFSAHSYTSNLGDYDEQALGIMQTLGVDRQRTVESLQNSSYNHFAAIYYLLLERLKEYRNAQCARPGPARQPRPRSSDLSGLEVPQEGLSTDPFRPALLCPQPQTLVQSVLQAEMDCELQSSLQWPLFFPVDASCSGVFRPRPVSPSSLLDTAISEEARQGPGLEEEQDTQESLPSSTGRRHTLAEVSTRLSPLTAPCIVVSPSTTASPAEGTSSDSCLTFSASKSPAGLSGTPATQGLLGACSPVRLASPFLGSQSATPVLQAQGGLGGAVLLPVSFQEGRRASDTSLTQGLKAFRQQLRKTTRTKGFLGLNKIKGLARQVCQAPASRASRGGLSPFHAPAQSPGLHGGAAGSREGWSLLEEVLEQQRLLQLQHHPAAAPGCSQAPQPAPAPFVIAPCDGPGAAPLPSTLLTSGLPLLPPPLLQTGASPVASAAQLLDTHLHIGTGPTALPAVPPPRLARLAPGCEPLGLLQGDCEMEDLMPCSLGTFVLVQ
T3 sequence (Q9Y2K2 whole entry): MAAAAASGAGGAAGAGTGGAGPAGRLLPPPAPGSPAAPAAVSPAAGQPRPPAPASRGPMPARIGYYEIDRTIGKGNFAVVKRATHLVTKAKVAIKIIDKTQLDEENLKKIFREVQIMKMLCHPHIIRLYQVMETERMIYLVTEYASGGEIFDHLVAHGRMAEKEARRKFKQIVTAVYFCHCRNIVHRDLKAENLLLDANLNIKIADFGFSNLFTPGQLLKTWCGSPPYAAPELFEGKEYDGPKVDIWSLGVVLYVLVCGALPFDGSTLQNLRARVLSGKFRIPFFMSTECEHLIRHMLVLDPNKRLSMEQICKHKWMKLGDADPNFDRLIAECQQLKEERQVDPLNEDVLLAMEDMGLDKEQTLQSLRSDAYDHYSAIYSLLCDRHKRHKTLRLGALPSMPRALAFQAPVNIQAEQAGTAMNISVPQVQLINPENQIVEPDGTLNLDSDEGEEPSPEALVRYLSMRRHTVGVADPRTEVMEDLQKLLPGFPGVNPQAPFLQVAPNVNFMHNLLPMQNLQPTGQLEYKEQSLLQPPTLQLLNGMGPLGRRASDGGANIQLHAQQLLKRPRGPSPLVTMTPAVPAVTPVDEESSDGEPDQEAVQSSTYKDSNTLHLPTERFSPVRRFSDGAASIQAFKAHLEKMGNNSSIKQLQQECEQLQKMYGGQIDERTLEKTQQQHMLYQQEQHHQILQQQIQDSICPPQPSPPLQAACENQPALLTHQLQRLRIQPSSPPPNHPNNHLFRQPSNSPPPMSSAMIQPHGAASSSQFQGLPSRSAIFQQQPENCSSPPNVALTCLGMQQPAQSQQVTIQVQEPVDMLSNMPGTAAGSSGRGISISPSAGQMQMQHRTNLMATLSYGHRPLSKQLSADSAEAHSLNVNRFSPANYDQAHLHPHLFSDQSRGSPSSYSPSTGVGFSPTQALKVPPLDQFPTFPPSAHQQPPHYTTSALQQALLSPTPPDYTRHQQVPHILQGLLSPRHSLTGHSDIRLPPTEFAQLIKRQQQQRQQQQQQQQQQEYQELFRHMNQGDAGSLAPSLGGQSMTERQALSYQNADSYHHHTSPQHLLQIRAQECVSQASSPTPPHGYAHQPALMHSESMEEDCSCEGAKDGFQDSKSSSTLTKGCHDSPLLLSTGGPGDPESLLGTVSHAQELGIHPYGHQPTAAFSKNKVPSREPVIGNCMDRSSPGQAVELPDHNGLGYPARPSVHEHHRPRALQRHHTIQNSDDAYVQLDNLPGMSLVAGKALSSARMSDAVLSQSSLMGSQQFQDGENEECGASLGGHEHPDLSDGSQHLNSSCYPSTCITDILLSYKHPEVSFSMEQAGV

Turning to `COc1cc(-n2cnc3cc(-c4cnn(C)c4)ccc32)cc(OC)c1C(=O)NCc1ccn(C)n1` [compound 61], the IC50 (as a rule, the midpoint of a concentration-inhibition curve) on SIK1 is above 500 nM; on SIK2, 100 to 500 nM; against SIK3 it was above 500 nM.

Turning to `COc1cc(-n2cnc3cc(-c4cnn(C)c4)ccc32)cc(OC)c1C(=O)N1CC(O)(C2CC2)C1` [compound 220, (3-cyclopropyl-3-hydroxy-azetidin-1-yl)-[2,6-dimethoxy-4-[5-(1-methylpyrazol-4-yl)benzimidazol-1-yl]phenyl]methanone], the IC50 at SIK1, at SIK2 and against SIK3 was 10 to 100 nM each time.

`COc1cc(-n2cnc3cc(-c4ccc(N(C)C)nc4)ccc32)cc(OC)c1C(=O)NCC(F)(F)F` [compound 37, 4-[5-[6-(dimethylamino)-3-pyridyl]benzimidazol-1-yl]-2,6-dimethoxy-N-(2,2,2-trifluoroethyl)benzamide]: the IC50 on SIK1, on SIK2 and against SIK3 was 100 to 500 nM each time.

Regarding `COc1cc(-n2cnc3cc(-c4cnn(C)c4)ccc32)cc(OC)c1C(=O)N1CC(N(C)C)C1` [compound 185, [2,6-dimethoxy-4-[5-(1-methylpyrazol-4-yl)benzimidazol-1-yl]phenyl]-[3-(dimethylamino)azetidin-1-yl]methanone], the IC50 at SIK1 is 100 to 500 nM; on SIK2, 100 to 500 nM; against SIK3, above 500 nM.

Turning to `COc1cc(-n2cnc3cc(-c4cnn(C)c4)ccc32)cc(OC)c1C(=O)N1CC(N2CCOCC2)C1` [compound 188, [2,6-dimethoxy-4-[5-(1-methylpyrazol-4-yl)benzimidazol-1-yl]phenyl]-(3-morpholinoazetidin-1-yl)methanone], the IC50 on SIK1, on SIK2 and on SIK3 was above 500 nM each time.

Take `COc1cc(-n2cnc3cc(-c4cnn(C)c4)ccc32)cc(OC)c1C(=O)NCCF` [compound 79, N-(2-fluoroethyl)-2,6-dimethoxy-4-[5-(1-methylpyrazol-4-yl)benzimidazol-1-yl]benzamide]: the IC50 at SIK1 is 10 to 100 nM; at SIK2 it was 0.01 to 10 nM; against SIK3 it was 0.01 to 10 nM.

For `COc1cc(-n2cnc3cc(-c4nnc(C)o4)ccc32)cc(OC)c1C(=O)NCC(F)(F)F` [Cpd 167, 2,6-dimethoxy-4-[5-(5-methyl-1,3,4-oxadiazol-2-yl)benzimidazol-1-yl]-N-(2,2,2-trifluoroethyl)benzamide], the figures for the IC50 at SIK1, on SIK2 and against SIK3 were above 500 nM, above 500 nM and 100 to 500 nM, respectively.

Regarding `COc1cc(-n2cnc3cc(-c4cnn(C)c4)ccc32)cc(OC)c1C(=O)N1CC(c2ccccc2)C1` [compound 180, [2,6-dimethoxy-4-[5-(1-methylpyrazol-4-yl)benzimidazol-1-yl]phenyl]-(3-phenylazrtidin-1-yl)methanone], the values for the IC50 at SIK1, on SIK2 and on SIK3 were 10 to 100 nM, 100 to 500 nM and 100 to 500 nM, respectively.

As for `COc1cc(-n2cnc3cc(-c4cnn(C)c4)ccc32)cc(OC)c1C(=O)Nc1cn(C)cn1` [compound 82, 2,6-dimethoxy-N-(1-methylimidazol-4-yl)-4-[5-(1-methylpyrazol-4-yl)benzimidazol-1-yl]benzamide], the IC50 on SIK1, at SIK2 and at SIK3 was 100 to 500 nM in each case.

For the compound `COc1cc(-c2ccc3c(c2)ncn3-c2cc(OC)c(C(=O)NCC(F)(F)F)c(OC)c2)ccn1` [compound 106, 2,6-dimethoxy-4-[5-(2-methoxy-4-pyridyl)benzimidazol-1-yl]-N-(2,2,2-trifluoroethyl)benzamide], the IC50 at SIK1 is 100 to 500 nM; on SIK2 it was 10 to 100 nM; against SIK3 it was 10 to 100 nM.

In the case of `COc1cc(-n2cnc3cc(-c4cnn(C)c4)ccc32)cc(OC)c1C(=O)N1CC(OCc2ccccc2)C1` [compound 186, (3-benzyloxyazetidin-1-yl)-[2,6-dimethoxy-4-[5-(1-methylpyrazol-4-yl)benzimidazol-1-yl]phenyl]methanone], the IC50 at SIK1 was 10 to 100 nM; on SIK2, 100 to 500 nM; on SIK3, 100 to 500 nM.

Take `COc1cc(-n2cnc3cc(-c4cnc(C)n4C)ccc32)cc(OC)c1C(=O)NCC(F)(F)F` [compound 138, 4-[5-(2,3-dimethylimidazol-4-yl)benzimidazol-1-yl]-2,6-dimethoxy-N-(2,2,2-trifluoroethyl)benzamide]: the IC50 on SIK1 was above 500 nM; on SIK2 it was 100 to 500 nM; against SIK3 it was 100 to 500 nM.

As to `COc1cc(-n2cnc3cc(-c4cnn(C)c4)ccc32)cc(OC)c1C(=O)NC(C)C(F)F` (stereo not drawn) [compound 91, N-(2,2-difluoro-1-methyl-ethyl)-2,6-dimethoxy-4-[5-(1-methylpyrazol-4-yl)benzimidazol-1-yl]benzamide], the IC50 on SIK1, at SIK2 and against SIK3 was 10 to 100 nM each time.

Regarding `CCn1cc(-c2ccc3c(c2)ncn3-c2cc(OC)c(C(=O)NCCO)c(OC)c2)cn1` [compound 5, 4-[5-(1-ethylpyrazol-4-yl)benzimidazol-1-yl]-N-(2-hydroxyethyl)-2,6-dimethoxy-benzamide], the figures for the IC50 at SIK1, at SIK2 and against SIK3 were 100 to 500 nM, 10 to 100 nM and 10 to 100 nM, respectively.

With `COc1cc(-n2cnc3cc(-c4cnn(C)c4)ccc32)cc(OC)c1C(=O)NC1CCC[C@@H]1O` (stereo in doubt) [compound 141, N-[(1R,2S)-2-hydroxycyclopentyl]-2,6-dimethoxy-4-[5-(1-methylpyrazol-4-yl)benzimidazol-1-yl]benzamide], the IC50 on SIK1, at SIK2 and against SIK3 was 10 to 100 nM each time.

For the compound `COc1cc(-n2cnc3cc(-c4cnn(C)c4)ccc32)cc(OC)c1C(=O)NCC#N` [compound 75], the IC50 at SIK1 was in the range of 10 to 100 nM; at SIK2, 0.01 to 10 nM; at SIK3 it was 0.01 to 10 nM.

Take `COc1cc(-c2cnc3cc(-c4cncnc4C(C)C)ccn23)cc(OC)c1C(=O)NCC(F)(F)F` [compound 253, 4-[7-(4-isopropylpyrimidin-5-yl)imidazo[1,2-a]pyridin-3-yl]-2,6-dimethoxy-N-(2,2,2-trifluoroethyl)benzamide]: the values for the IC50 on SIK1, on SIK2 and on SIK3 were above 500 nM, above 500 nM and 100 to 500 nM, respectively.

With `CCNC(=O)c1c(O)cc(-n2cnc3cc(-c4cnn(CC)c4)ccc32)cc1OC` [compound 23, N-ethyl-4-[5-(1-ethylpyrazol-4-yl)benzimidazol-1-yl]-2-hydroxy-6-methoxy-benzamide], the IC50 at SIK1, on SIK2 and against SIK3 was 10 to 100 nM each time.

For the compound `COc1cc(-n2cnc3cc(-c4cnn(C)c4)ccc32)cc(OC)c1C(=O)NC[C@@H]1COCCO1` [compound 67, N-[[(2R)-1,4-dioxan-2-yl]methyl]-2,6-dimethoxy-4-[5-(1-methylpyrazol-4-yl)benzimidazol-1-yl]benzamide], the IC50 on SIK1, on SIK2 and at SIK3 was 100 to 500 nM each time.

Take `COc1cc(-n2cnc3cc(-c4cnn(C)c4)ccc32)cc(OC)c1C(=O)N1CCC1` [compound 162, azetidin-1-yl-[2,6-dimethoxy-4-[5-(1-methylpyrazol-4-yl)benzimidazol-1-yl]phenyl]methanone]: the IC50 at SIK1 is 100 to 500 nM; at SIK2, 100 to 500 nM; on SIK3 it was 10 to 100 nM.

Consider `COc1cc(-n2cnc3cc(-c4cnn(C)c4)ccc32)cc(OC)c1C(=O)N(C)CC#N` [compound 74, N-(cyanomethyl)-2,6-dimethoxy-N-methyl-4-[5-(1-methylpyrazol-4-yl)benzimidazol-1-yl]benzamide], for which the IC50 fell in the range of 100 to 500 nM on SIK1, 100 to 500 nM on SIK2 and 10 to 100 nM against SIK3.

For the compound `COc1cc(-n2cnc3cc(-c4ccn(C)n4)ccc32)cc(OC)c1C(=O)NCC(F)(F)F` [compound 89, 2,6-dimethoxy-4-[5-(1-methylpyrazol-3-yl)benzimidazol-1-yl]-N-(2,2,2-trifluoroethyl)benzamide], the IC50 at SIK1, on SIK2 and at SIK3 was 10 to 100 nM throughout.

`COc1cc(-n2cnc3cc(-c4cnn(C)c4)ccc32)cc(OC(F)F)c1C(=O)NC(C)(C)C` [compound 199, N-tert-butyl-2-(difluoromethoxy)-6-methoxy-4-[5-(1-methylpyrazol-4-yl)benzimidazol-1-yl]benzamide]: the IC50 on SIK1, on SIK2 and against SIK3 was above 500 nM in each case.

For `COc1cc(-n2cnc3cc(-c4cnn(C)c4)ccc32)cc(OC(C)C)c1C(=O)NC1CC1` [Cpd 119, N-cyclopropyl-2-isopropoxy-6-methoxy-4-[5-(1-methylpyrazol-4-yl)benzimidazol-1-yl]benzamide], the IC50 on SIK1, on SIK2 and at SIK3 was 100 to 500 nM each time.

With `CCC1(O)CN(C(=O)c2c(OC)cc(-n3cnc4cc(-c5cnn(C)c5)ccc43)cc2OC)C1` [compound 218, [2,6-dimethoxy-4-[5-(1-methylpyrazol-4-yl)benzimidazol-1-yl]phenyl]-(3-ethyl-3-hydroxy-azetidin-1-yl)methanone], the IC50 lay in the range of 10 to 100 nM at SIK1, 10 to 100 nM at SIK2 and 100 to 500 nM at SIK3.

Consider `COc1cc(-c2cnc3cc(-c4cccnc4OC)ccn23)cc(OC)c1C(=O)NCC(F)(F)F` [compound 250, 2,6-dimethoxy-4-[7-(2-methoxy-3-pyridyl)imidazo[1,2-a]pyridin-3-yl]-N-(2,2,2-trifluoroethyl)benzamide], for which the IC50 at SIK1 fell in the range of 100 to 500 nM; at SIK2, 10 to 100 nM; against SIK3, 10 to 100 nM.
